Results reported in a melting point compilation (Tetko et al.).

SMILES | melting point [°C]
OCCN(CCO)c1nc(N2CCCCC2)c2nc(N(CCO)CCO)nc(N3CCCCC3)c2n1 | 163
CN(C)c1ccc(CCC2CCc3ccccc3N2C(=O)c2ccccc2)cc1 (stereo unspecified) | 121
OC(CCCc1ccccc1)c1ccccc1 (stereo unspecified) | 47
O=C(O)COCCNC(=O)C12CC3CC(CC(C3)C1)C2 | 120 to 124
Cc1nc(-c2ccc(S(=O)(=O)N(C)C)cc2)c(-c2ccc(S(=O)(=O)N(C)C)cc2)o1 | 208 to 211
c1ccc(-c2nc(-c3ccccc3)nc(-c3ccccc3)n2)cc1 | 235
COc1c(C)c(C)c(OC)c(Br)c1C | 72
O=C(O)c1cc(F)nc(F)c1F | 125 to 127
Nc1cc(C(F)(F)F)ccc1N1CCCCC1 | 41 to 43
O=C1OC(OC(=O)C(F)(F)F)c2ccccc21 (stereo unspecified) | 58
Clc1ccc(C2NN=C3c4ccccc4CCC32)cc1 (stereo unspecified) | 181 to 184
CCOC(=O)C1=C(C)NC(=O)NC1C (stereo unspecified) | 189 to 190
COC(=O)C1CCC(C)(C(C)(C)O)OC1(C)C (stereo unspecified) | 139
CC(C)C(C)N (stereo unspecified) | -50
CCN(CC)c1ccc(C=NN(c2ccccc2)c2ccccc2)cc1 | 92 to 95
COc1ccc(C2c3cc(OC)c(OC)cc3CCN2C(C)=O)cc1 (stereo unspecified) | 105 to 107
C[C@@H]1C(=O)[C@]23C[C@H]1CC[C@H]2[C@@]1(CCC[C@@]2(C)COC(=O)[C@H]21)COC3=O | 297
N#Cc1cc(I)c(O)c(I)c1 | 212
O=C(Oc1cccc(N=[N+]([O-])c2cccc(OC(=O)c3ccccc3)c2)c1)c1ccccc1 | 175
Clc1c(Cl)c(Cl)c2c(c1Cl)OC(c1ccccc1)O2 | 115

SMILES | melting point [°C]
O=C(O)CCC(=O)c1ccc2c(c1)OCCO2 | 138 to 140
C1CN2CCN3CCN1C23 | -14.7
Cc1cc(-c2ccccc2)nc2cc3nc(-c4ccccc4)cc(C)c3cc12 | 284 to 285
Cc1nc(C(N)=S)cs1 | 201 to 203
CCCCCCCCCCCCC(C)O (stereo unspecified) | 34
COc1cc(C=CC(=O)O)cc(OC)c1 | 173 to 176
ClCc1ccc(CCl)cc1 | 100
CC1=CC(=O)NS(=O)(=O)O1 | 123
O=Cc1cn(Cc2ccccc2)c2ccccc12 | 108 to 110
Cc1ccccc1NN=C1C(=O)NC(=O)NC1=O | 265
CCC(=O)C(C)(C)C | -45
CC(=O)NC(CCC(N)=O)C(=O)O (stereo unspecified) | 197
CCOc1ccc2[nH]c(=S)sc2c1 | 199
CCOC(=O)C1=C(C)NC(C)=C(C(=O)OCC)C1C | 132 to 139
CCCNC(N)=O | 107 to 109
CC(CCc1ccc(CCC(C)OC(=O)Nc2ccccc2)cc1)OC(=O)Nc1ccccc1 (stereo unspecified) | 165
O=C1COC(c2ccc(C(F)(F)F)cc2)CN1 (stereo unspecified) | 116
CC(=O)Oc1ccccc1C(=O)Oc1ccccc1 | 96
NC(=O)c1ccc(F)cc1F | 161
COc1ccc(OCC(N)=O)cc1 | 114 to 116

SMILES | melting point [°C]
CC(C)(C)OC(=O)NCCCC[C@H](NC(=O)OCC1c2ccccc2-c2ccccc21)C(=O)O | 134 to 137
Cc1ccc(C)n1-c1cc(Cl)c([N+](=O)[O-])cc1Cl | 82 to 84
CCN(CC)c1ccc(/C=C2\CC/C(=C\c3ccc(N(CC)CC)cc3)C2=O)cc1 | 186 to 189
O=C1CCC(c2ccc(NC(=O)CCl)cc2)=NN1 | 220 to 223
CCOC(=O)c1cn2nc(Cl)ccc2n1 | 156 to 157
ON=C(C1CC1)C1CC1 | 76.5
CCCOc1ccccc1OCC(O)CO (stereo unspecified) | 70
N#CC1=C(N)n2nc(C(F)(F)F)nc2NC1c1ccc(Cl)cc1Cl (stereo unspecified) | 305 to 307
CSC(=Nc1nccs1)SC | 194 to 195
N#Cc1ccccc1CBr | 72
O=C(O)c1cc(F)ccc1C(F)(F)F | 82
c1ccc(-c2cccc(-c3ccccc3)n2)cc1 | 78
O=C(O)c1cc(O)cc(O)c1 | 235 to 240
CC12CCC(C1(C)C)C(CCCc1ccccc1)(C1(CCCc3ccccc3)C(=O)C3(C)CCC1C3(C)C)C2=O (stereo unspecified) | 250
CCOC(=O)C1(c2ccccc2)CCN(CCc2ccc(N)cc2)CC1 | 83
COC(=O)C1=C(C(=O)OC)CC2=C(CC3=C(C2)CC(C(=O)OC)=C(C(=O)OC)C3)C1 | 260 to 262
O=C(O)CCCC(=O)c1cccs1 | 96
CC(CN1CCOCC1)C(C(=O)N1CCCC1)(c1ccccc1)c1ccccc1 (stereo unspecified) | 180

The next lines start with the values.

melting point [°C] | SMILES
90 | Cc1cccc(C)c1C#N
80 to 80.5 | O=C(Cl)c1cccc(-c2nccs2)c1
40.5 | CN(C)C(=O)CCCOC(=O)c1ccccc1
33.5 | C/C=C/c1ccc(O)c(OC)c1
102 to 103 | OCc1cn2ccccc2n1
115 | O=C1OC(=O)c2cc([N+](=O)[O-])ccc21
156 to 158 | O=C(C=Cc1cccc(O)c1)c1ccccc1
47 | O=Cc1ccccc1OCc1ccccc1
210 | Cc1cccc2c(C=O)c[nH]c12
193 to 194 | CC12CC(c3ccccc3)C([N+](=O)[O-])C(O1)c1ccccc1N2 (stereo unspecified)
148 to 149 | Nc1n[nH]c(N)c1Cc1ccccc1
170 to 172 | Nc1cccc(F)c1C(=O)O
187 | O=C(/C=C/c1ccc(-c2ccc([N+](=O)[O-])cc2)o1)c1ccco1
75 to 80 | Brc1ccc(Cn2ccnc2)cc1
41 to 43 | Cn1ccc2c(C#N)cccc21
176 | COc1nccnc1NS(=O)(=O)c1ccc(N)cc1
58 to 60 | O=[N+]([O-])c1cccc(N=C=S)c1

melting point [°C] | SMILES
243 to 245 | Cn1ccc2c(C(=O)O)cccc21
45.5 | CCCCNCC(=O)Nc1c(C)cccc1Cl
89 | CCN(CC)CN1C(=O)/C(=C\c2ccc(Cl)cc2)SC1=S
250 to 252 | COc1ccc(Br)cc1/C=c1\sc2nc3ccccc3n2c1=O
46 | Brc1cccc2ncccc12
61 | Fc1ccc2ccccc2c1
120 to 122 | Nc1ccc(Oc2c(Cl)cccc2Cl)nc1
92 to 95 | Nc1cccc(-c2cnco2)c1
81 to 84 | O=C(O)CSC=Cc1ccccc1
167 to 168 | COC(=O)c1ccc(C(N)=NO)cc1
77 to 79 | O=C(Cl)c1cnn(-c2ccc([N+](=O)[O-])cc2)c1C(F)(F)F
97 to 99 | NCc1ccc2nccn2c1
93 | N#CC1(c2ccc(F)cc2)CCC(=O)CC1
199 to 201 | Cc1nn(-c2ccccc2)c(C)c1C(=O)O
10 | CCCC(=O)c1ccccc1O
69 | COC(=O)c1cccc([N+](=O)[O-])c1C(=O)OC
